Several values for one entry are separate records, joined by “and”; a condition that tells them apart may be missing. Equal entries are not always repeated.

For test [1], the system named is plasma p-tau181/Abeta42 ratio. Put plainly: Phase 2 trial in early AD APOE4 carriers: plasma p-tau181/Abeta42 ratio. Particulars: 265 mg BID oral. It counts as in vivo, human. As to the method:
(§1) Evaluation of disease modifying effects from phase 2 trial of ALZ-801 (valiltramiprosate) in subjects with early Alzheimer's disease were conducted. The study enrolled 84 patients, with early AD, who carry the APOE4/4 or APOE3/4 genotype and have an MMSE score ranging from 22 to 30 (CDR-G 0.5 or 1). Each patient received 265 mg ALZ-801 twice daily. The average MMSE score of the subjects was 26 (mean age 69 years, 52% female). Subjects were either amyloid PET positive or A+/T+ on CSF assays. CSF criteria were: Ratio of Aβ42/40×10≤0.61, and p-tau181≥61 pg/ml. CSF was evaluated at 52 weeks, and plasma biomarkers at every visit.
(§2) All fluid biomarker analyses were performed at the Neurochemistry Laboratory of Dr. Blennow (Molndal, Sweden), and were blinded to subject's demographics or genotype. CSF biomarker assays were analyzed using Lumipulse (Fujirebio) and plasma assays utilized Simoa assays. Cognitive tests include the Rey Auditory Verbal Learning Test (RAVLT: immediate, delayed and recognition memory) and Digit Symbol Substitution Tests (DSST), and a composite Z-score is calculated (3-item RAVLT+DSST). Change from baseline (CBL) analyses were performed on the mITT population and included all observed data, using paired t-tests and 2-sided p-values. The primary biomarker outcome was p-tau181.
(§3) Of the 84 APOE4 carrier that were enrolled and received ALZ-801, 80 and 75 subjects completed 26 and 52 weeks respectively. […] This is much greater than the annualized ˜12% reduction in plasma p-tauisi observed in the recent human clinical trials of the anti-amyloid antibody lecanemab (van Dyck, C H et al., N Engl J Med 2023; 388: 9-21, DOI: 10.1056/NEJMoa2212948).

A further test concerns plasma Abeta40. Description: Phase 2 trial in early AD APOE4 carriers: plasma Abeta40. In kind it is in vivo, human. Particulars: 52 weeks; 265 mg BID oral; p=0.002. As to the method:
as §1
as §2, with “p-tau181. […]” for “p-tau181.”

Another test has as its system plasma p-tau181. Put plainly: Phase 2 trial in early AD APOE4 carriers: plasma p-tau181 (Simoa). In kind it is in vivo, human. Particulars: 265 mg BID oral, APOE4/4 or APOE3/4, change from baseline. As to the method:
as §1, §2, §3

The test system of a further test is plasma Abeta42. Description: Phase 2 trial in early AD APOE4 carriers: plasma Abeta42. It counts as in vivo, human. Particulars: 52 weeks; 265 mg BID oral; p=0.005. Here is the method: as §1
as §2, with “p-tau181. […]” for “p-tau181.”

Test [2] can be described thus: Phase 2 trial in early AD APOE4 carriers: brain volumes (hippocampal, ventricular; MRI) vs matched ADNI cohort. It counts as in vivo, human. As to the method:
as §1
Unlike anti-amyloid antibodies, such as Lecanemab, ALZ-801 treatment over 52 weeks also appeared to show an ˜15% reduction in ventricular volume expansion as measured by MRI (p=0.08).

For test [3] the following is noted: cited from earlier work.

As to `CC(C)[C@H](N)C(=O)NCCCS(=O)(=O)O` [ALZ-801, valyl-3-amino-1-propanesulfonic acid], the “reduction in plasma p-tau181/Abeta42 ratio” value in test [1] (13 weeks, p=0.011) was 21%; in test [1] (26 weeks, p=0.011), 30%; in test [1] (52 weeks, p=0.032), 37% and 31%. The “reduction in plasma Abeta40” value in the test on plasma Abeta40 is reported as 5%. Also, the “reduction in plasma p-tau181” value turned out to be 18% in the test with plasma p-tau181 (13 weeks, p=0.014); 29% with plasma p-tau181 (26 weeks, p=0.014); 41% in the test with plasma p-tau181 (52 weeks, p=0.016). Besides, in the test on plasma Abeta42, the “reduction in plasma Abeta42” value is on record as 5%. Moreover, the “annualized reduction in atrophy of hippocampal volume” value in test [2] (compared to a well-matched ADNI cohort, p=0.05) was around 20%. Besides, the “reduction in ventricular volume expansion” value in test [2] (over 52 weeks, measured by MRI, p=0.08) was around 15%.

B1: lecanemab: anti-amyloid antibody (antibody, chains of the INN, looked up, V domains shown)
VH: EVQLVESGGGLVQPGGSLRLSCSASGFTFSSFGMHWVRQAPGKGLEWVAYISSGSSTIYYGDTVKGRFTISRDNAKNSLFLQMSSLRAEDTAVYYCAREGGYYYGRSYYTMDYWGQGTTVTVSS
VL: DVVMTQSPLSLPVTPGAPASISCRSSQSIVHSNGNTYLEWYLQKPGQSPKLLIYKVSNRFSGVPDRFSGSGSGTDFTLRISRVEAEDVGIYYCFQGSHVPPTFGPGTKLEIK
As for B1, the “annualized reduction in hippocampal volume atrophy, result in words” value in test [3] (Van Dyck, 2022) is given as “did not demonstrate any significant annualized reduction”. The “annualized reduction in plasma p-tau181” value in test [3] (recent human clinical trials of lecanemab, van Dyck et al. N Engl J Med 2023) is reported as around 12%.
